Measurements taken from patent US7741327B2 (Hoffmann-La Roche Inc., priority 2008, dated 2010).

Biological target: T1, Recombinant human liver GK1 (GST-GK) (Homo sapiens, UniProt P35557)
T1 construct: made in house; host or cells: E. coli
T1 sequence (P35557 1-466 isoform P35557-2): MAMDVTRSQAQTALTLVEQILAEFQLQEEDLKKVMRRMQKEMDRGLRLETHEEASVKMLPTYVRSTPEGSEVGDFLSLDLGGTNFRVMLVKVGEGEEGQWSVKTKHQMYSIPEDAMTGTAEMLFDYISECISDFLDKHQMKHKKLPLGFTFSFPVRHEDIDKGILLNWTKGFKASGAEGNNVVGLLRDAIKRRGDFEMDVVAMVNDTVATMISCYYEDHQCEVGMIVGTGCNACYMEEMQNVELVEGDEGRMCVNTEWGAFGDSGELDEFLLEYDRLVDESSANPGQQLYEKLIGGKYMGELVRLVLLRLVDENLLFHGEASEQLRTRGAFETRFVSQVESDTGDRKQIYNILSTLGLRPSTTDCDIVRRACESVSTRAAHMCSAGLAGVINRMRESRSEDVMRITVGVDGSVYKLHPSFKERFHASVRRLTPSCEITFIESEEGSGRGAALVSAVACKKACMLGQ
Assay: In vitro glucokinase activity (G6PDH-coupled NADH assay)
Format: biochemical
Details: for SC1.5 (concentration of activator that produced a 50% increase in the activity of GK): 30° C., 5 mM D-glucose, 10% DMSO
Protocol: Glucokinase In Vitro Assay Protocol: Glucokinase (GK) was assayed by coupling the production of glucose-6-phosphate to the generation of NADH with glucose-6-phosphate dehydrogenase (G6PDH, 0.75-1 kunits/mg; Boehringer Mannheim, Indianapolis, Ind.) from Leuconostoc mesenteroides as the coupling enzyme (Scheme 2).
Recombinant human liver GK1 was expressed in E. coli as a glutathione S-transferase fusion protein (GST-GK) [Liang et al, 1995] and was purified by chromatography over a glutathione-Sepharose 4B affinity column using the procedure provided by the manufacturer (Amersham Pharmacia Biotech, Piscataway, N.J.).
The assay was conducted at 30° C. in a flat bottom 96-well tissue culture plate from Costar (Cambridge, Mass.) with a final incubation volume of 120 μL. The incubation reaction contained the following: 25 mM Hepes buffer (pH 7.1), 25 mM KCl, 5 mM D-glucose, 1 mM ATP, 1.8 mM NAD, 2 mM MgCl2, 1 μM sorbitol-6-phosphate, 1 mM dithiothreitol, test drug or 10% dimethylsulfoxide, ˜7 units/ml G6PDH, and GK (see below). All organic reagents were >98% pure and were from Boehringer Mannheim with the exceptions of D-glucose and Hepes which were from Sigma Chemical Co, St Louis, Mo. Test compounds were dissolved in dimethylsulfoxide and were added to the incubation reaction minus GST-GK in a volume of 12 μL to yield a final dimethylsulfoxide concentration of 10%. This mix was pre-incubated in the temperature controlled chamber of a SPECTRAmax 250 microplate spectrophotometer (Molecular Devices Corporation, Sunnyvale, Calif.) for 10 min to allow temperature equilibrium and then the reaction was started by the addition of 20 μL GST-GK.
After addition of enzyme, the increase in optical density (OD) at 340 nm was monitored spectrophotometrically to determine the rate of change (OD340 per min). The GK activity (OD340/min) in control wells (10% DMSO minus GK activators) was compared with the activity in wells containing test GK activators, and the concentration of activator that produced a 50% increase in the activity of GK, i.e., the SC1.5, was calculated. The table below provides the in vitro glucokinase activity for the compounds in the Examples: […]

SMILES	SC1.5 (concentration of activator that produced a 50% increase in the activity of GK) [µM]	fold act. @ 30 μM (at 30 μM test compound) [fold]
CC[C@H](C)CC(C(=O)Nc1ccn(C[C@@H]2COC(C)(C)O2)n1)N1CC(Oc2ccccc2Cl)=CC1=O (mixture of isomers) [Example 248, (S)-2-[4-(2-Chloro-phenoxy)-2-oxo-2,5-dihydro-pyrrol-1-yl]-4-methyl-hexanoic acid [1-((R)-2,2-dimethyl-[1,3]dioxolan-4-ylmethyl)-1H-pyrazol-3-yl]-amide]	0.304	
CC[C@H](C)CC(C(=O)Nc1ccn(C[C@@H](O)CO)n1)N1CC(Oc2ccccc2Cl)=CC1=O (mixture of isomers) [Example 249, (S)-2-[4-(2-Chloro-phenoxy)-2-oxo-2,5-dihydro-pyrrol-1-yl]-4-methyl-hexanoic acid [1-((R)-2,3-dihydroxy-propyl)-1H-pyrazol-3-yl]-amide]	0.125	
CC(C)(O)Cn1ccc(NC(=O)[C@H](C[C@H]2C[C@H](C)C2)N2CC(Oc3ccccc3Cl)=CC2=O)n1 (single isomer, unassigned) [Example 215]	0.014	
CC(C)(O)Cn1ccc(NC(=O)[C@@H](C[C@H]2C[C@H](C)C2)N2CC(Oc3ccccc3Cl)=CC2=O)n1 (single isomer, unassigned) [Example 216]	2.715	
CC[C@H](C)C[C@H](C(=O)Nc1ccn(C[C@@H](O)CO)n1)N1CC(Oc2ccccc2Cl)=CC1=O (single isomer, unassigned) [Example 250]	6.017	
CC[C@H](C)C[C@@H](C(=O)Nc1ccn(C[C@@H](O)CO)n1)N1CC(Oc2ccccc2Cl)=CC1=O (single isomer, unassigned) [Example 251]	0.056	
CC[C@@H](C)C[C@H](C(=O)Nc1ccn(C[C@@H](O)CO)n1)N1CC(Oc2ccccc2Cl)=CC1=O (single isomer, unassigned) [Example 254]	16.154	
CCOc1ccc(F)c(OC2=CC(=O)N([C@@H](CC3CCOCC3)C(=O)Nc3ccn(CC(C)(C)O)n3)C2)c1F (single isomer, unassigned) [Example 257]	0.006	
CCOc1ccc(F)c(OC2=CC(=O)N([C@H](CC3CCOCC3)C(=O)Nc3ccn(CC(C)(C)O)n3)C2)c1F (single isomer, unassigned) [Example 258]	4.435	
COC1=CC(=O)N([C@@H](CC2CCCC2)C(=O)Nc2ccn(CC(C)(C)O)n2)C1 [Example 1, (S)-3-Cyclopentyl-N-[1-(2-hydroxy-2-methyl-propyl)-1H-pyrazol-3-yl]-2-(4-methoxy-2-oxo-2,5-dihydro-pyrrol-1-yl)-propionamide]	3.771	
COC1=CC(=O)N([C@@H](CC2CCCC2)C(=O)Nc2ncc(Cl)s2)C1 [Example 2, (S)-N-(5-Chloro-thiazol-2-yl)-3-cyclopentyl-2-(4-methoxy-2-oxo-2,5-dihydro-pyrrol-1-yl)-propionamide]	1.672	
COC1=CC(=O)N([C@@H](CC2CCCC2)C(=O)Nc2nc3ccccc3s2)C1 [Example 3, (S)-N-Benzothiazol-2-yl-3-cyclopentyl-2-(4-methoxy-2-oxo-2,5-dihydro-pyrrol-1-yl)-propionamide]	> 30	1.3
COC1=CC(=O)N([C@@H](CC2CCCC2)C(=O)Nc2nc(C)ns2)C1 [Example 4]	6.186	
COC1=CC(=O)N([C@@H](CC2CCCC2)C(=O)Nc2ccn(CC(C)(C)OC)n2)C1 [Example 5, (S)-3-Cyclopentyl-N-[1-(2-methoxy-2-methyl-propyl)-1H-pyrazol-3-yl]-2-(4-methoxy-2-oxo-2,5-dihydro-pyrrol-1-yl)-propionamide]	3.15	
COC1=CC(=O)N([C@@H](CC2CCCC2)C(=O)Nc2ccn(C)n2)C1 [Example 6, (S)-3-Cyclopentyl-2-(4-methoxy-2-oxo-2,5-dihydro-pyrrol-1-yl)-N-(1-methyl-1H-pyrazol-3-yl)-propionamide]	12.645	
COC1=CC(=O)N([C@@H](CC2CCCC2)C(=O)Nc2ccn(CCNC(=O)OC(C)(C)C)n2)C1 [Example 7, (2-{3-[(S)-3-Cyclopentyl-2-(4-methoxy-2-oxo-2,5-dihydro-pyrrol-1-yl)-propionylamino]-pyrazol-1-yl}-ethyl)-carbamic acid t-butylester]	13.732	
COC1=CC(=O)N([C@@H](CC2CCCC2)C(=O)Nc2ncc(F)s2)C1 [Example 8, (S)-3-Cyclopentyl-N-(5-fluoro-thiazol-2-yl)-2-(4-methoxy-2-oxo-2,5-dihydro-pyrrol-1-yl)-propionamide]	1.365	
COC1=CC(=O)N([C@@H](CC2CCCC2)C(=O)Nc2cnccn2)C1 [Example 9, (S)-3-Cyclopentyl-2-(4-methoxy-2-oxo-2,5-dihydro-pyrrol-1-yl)-N-pyrazin-2-yl-propionamide]	6.54	
COC(=O)c1ccc(NC(=O)[C@H](CC2CCCC2)N2CC(OC)=CC2=O)nc1 [Example 10, 6-[(S)-3-Cyclopentyl-2-(4-methoxy-2-oxo-2,5-dihydro-pyrrol-1-yl)-propionylamino]-nicotinic acid methyl ester]	1.855	
COC1=CC(=O)N([C@@H](CC2CCCC2)C(=O)Nc2ccc(C(=O)O)cn2)C1 [Example 11, 6-[(S)-3-Cyclopentyl-2-(4-methoxy-2-oxo-2,5-dihydro-pyrrol-1-yl)-propionylamino]-nicotinic acid]	3.99	
COC1=CC(=O)N([C@@H](CC2CCCC2)C(=O)Nc2ccn(Cc3cccc(C#N)c3)n2)C1 [Example 12, (S)-N-[1-(3-Cyano-benzyl)-1H-pyrazol-3-yl]-3-cyclopentyl-2-(4-methoxy-2-oxo-2,5-dihydro-pyrrol-1-yl)-propionamide]	3.591	
COC[C@H](C)OC1=CC(=O)N([C@@H](CC2CCCC2)C(=O)Nc2ccn(CC(C)(C)O)n2)C1 [Example 13, (S)-3-Cyclopentyl-N-[1-(2-hydroxy-2-methyl-propyl)-1H-pyrazol-3-yl]-2-[4-((S)-2-methoxy-1-methyl-ethoxy)-2-oxo-2,5-dihydro-pyrrol-1-yl]-propionamide]	4.062	
CC(C)(O)Cn1ccc(NC(=O)[C@H](CC2CCCC2)N2CC(OCc3ccccc3)=CC2=O)n1 [Example 14, (S)-2-(4-Benzyloxy-2-oxo-2,5-dihydro-pyrrol-1-yl)-3-cyclopentyl-N-[1-(2-hydroxy-2-methyl-propyl)-1H-pyrazol-3-yl]-propionamide]	0.368	
CC(C)OC1=CC(=O)N([C@@H](CC2CCCC2)C(=O)Nc2ccn(CC(C)(C)O)n2)C1 [Example 15, (S)-3-Cyclopentyl-N-[1-(2-hydroxy-2-methyl-propyl)-1H-pyrazol-3-yl]-2-(4-isopropoxy-2-oxo-2,5-dihydro-pyrrol-1-yl)-propionamide]	1.832	
